How the values were obtained:
A498 [1] = assay: Cytotoxicity against human A498 cells assessed as cell growth at 10^-6 M after 24 hrs by SRB assay; type: functional; conditions: A498, 24 h, read-out: Activity
CCRF-CEM = assay: Cytotoxicity against human CCRF-CEM cells assessed as cell growth at 10^-4 M after 24 hrs by SRB assay; type: functional; conditions: read-out: Activity
[2] = Cytotoxicity against human TK10 cells assessed as cell growth at 10^-5 M after 24 hrs by SRB assay; type: functional; conditions: TK-10, 24 h, read-out: Activity
KM12 = assay: Cytotoxicity against human KM12 cells after 24 hrs by SRB assay; type: functional; conditions: KM12, 24 h
[3] = Cytotoxicity against human SF268 cells assessed as cell growth at 10^-5 M after 24 hrs by SRB assay; type: functional; conditions: SF-268, 24 h, read-out: Activity
SK-MEL-5 = assay: Cytotoxicity against human SK-MEL-5 cells after 24 hrs by SRB assay; type: functional, cell-based; conditions: SK-MEL-5, 24 h
[4] = Cytotoxicity against human HCT116 cells assessed as cell growth at 10^-7 M after 24 hrs by SRB assay; type: functional; conditions: HCT-116, 24 h, read-out: Activity
[5] = Cytotoxicity against human HCC2998 cells after 24 hrs by SRB assay; type: functional, cell-based; conditions: HCC 2998, 24 h
[6] = Cytotoxicity against human TK10 cells assessed as cell growth at 10^-8 M after 24 hrs by SRB assay; type: functional; conditions: TK-10, 24 h, read-out: Activity
[7] = Cytotoxicity against human SF295 cells after 24 hrs by SRB assay; type: functional, cell-based; conditions: SF-295, 24 h
[8] = Cytotoxicity against human COLO205 cells assessed as cell growth at 10^-8 M after 24 hrs by SRB assay; type: functional; conditions: COLO 205, 24 h, read-out: Activity
SN12C = assay: Cytotoxicity against human SN12C cells assessed as cell growth at 10^-7 M after 24 hrs by SRB assay; type: functional; conditions: read-out: Activity
[9] = Cytotoxicity against human OVCAR4 cells assessed as cell growth at 10^-8 M after 24 hrs by SRB assay; type: functional; conditions: OVCAR-4, 24 h, read-out: Activity
ACHN = assay: Cytotoxicity against human ACHN cells assessed as cell growth at 10^-8 M after 24 hrs by SRB assay; type: functional; conditions: read-out: Activity
[10] = Cytotoxicity against human SKOV3 cells assessed as cell growth at 10^-6 M after 24 hrs by SRB assay; type: functional; conditions: SK-OV-3, 24 h, read-out: Activity
786-0 [11] = assay: Cytotoxicity against human 786-0 cells assessed as cell growth at 10^-8 M after 24 hrs by SRB assay; type: functional; conditions: 786-0, 24 h, read-out: Activity
[12] = Cytotoxicity against human UACC62 cells after 24 hrs by SRB assay; type: functional, cell-based; conditions: UACC-62, 24 h
[13] = Cytotoxicity against human Hs 578T cells assessed as cell growth at 10^-5 M after 24 hrs by SRB assay; type: functional; conditions: read-out: Activity
NCI-H23 = assay: Cytotoxicity against human NCI-H23 cells assessed as cell growth at 10^-8 M after 24 hrs by SRB assay; type: functional; conditions: NCI-H23, 24 h, read-out: Activity
[14] = Cytotoxicity against human SW620 cells assessed as cell growth at 10^-5 M after 24 hrs by SRB assay; type: functional; conditions: SW-620, 24 h, read-out: Activity
EKVX = assay: Cytotoxicity against human EKVX cells assessed as cell growth at 10^-6 M after 24 hrs by SRB assay; type: functional; conditions: read-out: Activity
A498 [15] = assay: Cytotoxicity against human A498 cells assessed as cell growth at 10^-7 M after 24 hrs by SRB assay; type: functional; conditions: A498, 24 h, read-out: Activity
[16] = Cytotoxicity against human OVCAR4 cells assessed as cell growth at 10^-7 M after 24 hrs by SRB assay; type: functional; conditions: OVCAR-4, 24 h, read-out: Activity
786-0 [17] = assay: Cytotoxicity against human 786-0 cells assessed as cell growth at 10^-6 M after 24 hrs by SRB assay; type: functional; conditions: 786-0, 24 h, read-out: Activity
786-0 [18] = assay: Cytotoxicity against human 786-0 cells assessed as cell growth at 10^-5 M after 24 hrs by SRB assay; type: functional; conditions: 786-0, 24 h, read-out: Activity
MDA-MB-435 [19] = assay: Cytotoxicity against human MDA-MB-435 cells assessed as cell growth at 10^-4 M after 24 hrs by SRB assay; type: functional; conditions: MDA-MB-435, 24 h, read-out: Activity
Malme-3M = assay: Cytotoxicity against human MALME-3M cells assessed as cell growth at 10^-6 M after 24 hrs by SRB assay; type: functional; conditions: read-out: Activity
[20] = Cytotoxicity against human RXF393 cells assessed as cell growth at 10^-4 M after 24 hrs by SRB assay; type: functional; conditions: RXF 393, 24 h, read-out: Activity
[21] = Cytotoxicity against human NCI-ADR-RES cells after 24 hrs by SRB assay; type: functional
[22] = Cytotoxicity against human SKOV3 cells assessed as cell growth at 10^-8 M after 24 hrs by SRB assay; type: functional; conditions: SK-OV-3, 24 h, read-out: Activity
A549 = assay: Cytotoxicity against human A549 cells assessed as cell growth at 10^-5 M after 24 hrs by SRB assay; type: functional; conditions: A549, 24 h, read-out: Activity
SK-MEL-2 = assay: Cytotoxicity against human SK-MEL-2 cells assessed as cell growth at 10^-4 M after 24 hrs by SRB assay; type: functional; conditions: SK-MEL-2, 24 h, read-out: Activity
[23] = Cytotoxicity against human HCT15 cells after 24 hrs by SRB assay; type: functional, cell-based; conditions: HCT-15, 24 h
MDA-MB-435 [24] = assay: Cytotoxicity against human MDA-MB-435 cells assessed as cell growth at 10^-6 M after 24 hrs by SRB assay; type: functional; conditions: MDA-MB-435, 24 h, read-out: Activity
[25] = Cytotoxicity against human UACC257 cells assessed as cell growth at 10^-7 M after 24 hrs by SRB assay; type: functional; conditions: UACC-257, 24 h, read-out: Activity
[26] = read-out: LC50 (the source's name)
[27] = read-out: pLC50 (the source's name) (converted)

O=C(Nc1cc(-c2cccnc2)nc(NCCCN2CCOCC2)n1)c1cc(Br)cc(C(F)(F)F)c1
growth at 1 µM (A498 [1]): 92%
growth at 100 µM (CCRF-CEM): -52%
growth at 10 µM [2]: 34%
GI50 (KM12; read-out: GI50): 3.62 µM
CC50 (KM12; [26]): 41 µM
TGI (KM12; read-out: TGI): 13.6 µM
GI50 (KM12; read-out: pGI50 (converted)): 3.63 µM
CC50 (KM12; [27]): 40.7 µM
TGI (KM12; read-out: pTGI (converted)): 13.5 µM
growth at 10 µM [3]: 1%
IC50 (SK-MEL-5): 1.62 µM
GI50 (SK-MEL-5; read-out: GI50): 1.64 µM
CC50 (SK-MEL-5; [26]): 5.56 µM
TGI (SK-MEL-5; read-out: TGI): 3.02 µM
GI50 (SK-MEL-5; read-out: pGI50 (converted)): 1.66 µM
CC50 (SK-MEL-5; [27]): 5.62 µM
TGI (SK-MEL-5; read-out: pTGI (converted)): 3.02 µM
growth at 0.1 µM [4]: 107%
GI50 [5]: 1.78 µM
CC50 [5, 26]: 6.89 µM
TGI ([5]; read-out: TGI): 3.49 µM
CC50 [5, 27]: 6.92 µM
TGI ([5]; read-out: pTGI (converted)): 3.47 µM
growth at 0.01 µM [6]: 91%
GI50 ([7]; read-out: GI50): 1.94 µM
CC50 [7, 26]: 7.97 µM
TGI ([7]; read-out: TGI): 3.93 µM
GI50 ([7]; read-out: pGI50 (converted)): 1.95 µM
CC50 [7, 27]: 7.94 µM
TGI ([7]; read-out: pTGI (converted)): 3.89 µM
growth at 0.01 µM [8]: 104%
growth at 0.1 µM (SN12C): 98%
growth at 0.01 µM [9]: 95%
growth at 0.01 µM (ACHN): 95%
growth at 1 µM [10]: 97%
growth at 0.01 µM (786-0 [11]): 93%
GI50 [12]: 1.95 µM
CC50 [12, 26]: 9.92 µM
TGI ([12]; read-out: TGI): 4.38 µM
CC50 [12, 27]: 10 µM
TGI ([12]; read-out: pTGI (converted)): 4.37 µM
growth at 10 µM [13]: -7%
growth at 0.01 µM (NCI-H23): 98%
growth at 10 µM [14]: -34%
growth at 1 µM (EKVX): 76%
growth at 0.1 µM (A498 [15]): 92%
growth at 0.1 µM [16]: 90%
growth at 1 µM (786-0 [17]): 81%
growth at 10 µM (786-0 [18]): -80%
growth at 100 µM (MDA-MB-435 [19]): -100%
growth at 1 µM (Malme-3M): 90%
growth at 100 µM [20]: -86%
GI50 ([21]; read-out: GI50): 2.6 µM
CC50 [21, 26]: 42.9 µM
TGI ([21]; read-out: TGI): 9.11 µM
GI50 ([21]; read-out: pGI50 (converted)): 2.57 µM
CC50 [21, 27]: 42.7 µM
TGI ([21]; read-out: pTGI (converted)): 9.12 µM
growth at 0.01 µM [22]: 97%
growth at 10 µM (A549): 51%
growth at 100 µM (SK-MEL-2): -89%
IC50 [23]: 1.92 µM
GI50 ([23]; read-out: GI50): 1.92 µM
CC50 [23, 26]: 19.3 µM
TGI ([23]; read-out: TGI): 5.28 µM
GI50 ([23]; read-out: pGI50 (converted)): 1.91 µM
CC50 [23, 27]: 19.5 µM
TGI ([23]; read-out: pTGI): 5.25 µM
growth at 1 µM (MDA-MB-435 [24]): 90%
growth at 0.1 µM [25]: 100%

From ChEMBL document CHEMBL3774345, “Synthesis of new diarylamides with pyrimidinyl pyridine scaffold and evaluation of their anti-proliferative effect on cancer cell lines” (Bioorg Med Chem Lett, 2016)
